The results in this text go back to patent US20250235434A1, “RIFABUTIN ANALOGS FOR THE TREATMENT OF DISEASE” (BIOVERSYS AG, priority 2022, published 2025).

Holding throughout (type): cell-based
Experiment [1] deals with A. baumannii (HUMC1 strain). The experiment in a line: MIC by broth microdilution against A. baumannii. The following applies: Acinetobacter baumannii, RPMI medium supplemented with 10% FCS, 35° C. for 20 hours, visual reading. On the technique in general: Broth dilution looks for growth in wells or tubes with falling amounts of substance.
In the next experiment the test system is M. xenopi (ATCC 19250). As to the kind of experiment: MIC against M. xenopi (resazurin assay). The conditions noted are these: Mycobacterium xenopi, ATCC19250, 168 h, Middlebrook 7H9 + ADC, 90% growth inhibition, 7 days. In general terms: Resazurin is reduced to fluorescent resorufin, in cell work by metabolically active cells.
The subject of experiment [2] is S. aureus (UAMS-1625 strain). As to the kind of experiment: MIC by broth microdilution against S. aureus. The conditions noted are these: Staphylococcus aureus, 20 h, read-out: MIC S. aureus.
The test system of experiment [3] is M. smegmatis (ATCC 700084). As to the kind of experiment: MIC against M. smegmatis (resazurin assay). The following applies: Mycolicibacterium smegmatis, ATCC700084, Middlebrook 7H9 + ADC, 90% growth inhibition, 20 h.
Experiment [4] has as its system M. abscessus (ATCC 19977). As to the kind of experiment: MIC by broth microdilution against M. abscessus. The conditions noted are these: Mycobacteroides abscessus.
In a further experiment the test system is M. kansasii (ATCC 12478). As to the kind of experiment: MIC against M. kansasii (resazurin assay). The conditions noted are these: Mycobacterium kansasii, ATCC12478, 168 h, Middlebrook 7H9 + ADC, 90% growth inhibition, 7 days.
The subject of experiment [5] is M. tuberculosis H37Rv (ATCC 27294). As to the kind of experiment: microbe, parasite or virus in culture. The following applies: Mycobacterium tuberculosis, 120 h.
The next experiment relates to M. avium (ATCC 25291). The experiment in a line: MIC against M. avium (resazurin assay). The following applies: Mycobacterium avium, ATCC25291, 168 h, Middlebrook 7H9 + ADC, 90% growth inhibition, 7 days.
The mark [6] stands for this setting: ATCC19977, 20 h, ATCC 19977, Middlebrook 7H9 broth with ADC supplement, visual reading, read-out: MIC M. abscessus.
Where [7] appears, read: ATCC19977, 20 h, read-out: MIC M. abscessus.

Values after ≈ are worked out from the molar mass of the structure shown. Like-named read-outs stand apart in the source and are kept apart here. Where only a bound is given, the exact number is not on record here.

`CO[C@H]1/C=C/O[C@@]2(C)Oc3c(C)c(O)c4c(c3C2=O)C2=NC3(CCN(CC(C)C)CC3)NC2=C(NC(=O)/C(C)=C\C=C\[C@H](C)[C@H](O)[C@@H](C)[C@@H](O)[C@@H](C)[C@H](OC(=O)CN2CCC(O)(Cc3ccccc3)CC2)[C@@H]1C)C4=O` [Compound 24]: the MIC in experiment [1] worked out at 0.016 µg/mL (≈ 15.4 nM); with M. xenopi (ATCC 19250) it was 0.01 µg/mL; in experiment [2], 0.125 µg/mL (≈ 121 nM); in experiment [3] it was 0.1 µg/mL; in experiment [4] (setting [6]) it was 1 µg/mL (≈ 965 nM); with M. kansasii (ATCC 12478), 0.01 µg/mL. Further, the results for the MIC (in experiment [5]; in the experiment on M. avium (ATCC 25291)) were 0.004 µg/mL (≈ 3.86 nM) and 2 µg/mL, respectively.
Regarding `CO[C@H]1/C=C/O[C@@]2(C)Oc3c(C)c(O)c4c(c3C2=O)C2=NC3(CCN(CC(C)C)CC3)NC2=C(NC(=O)/C(C)=C\C=C\[C@H](C)[C@H](O)[C@@H](C)[C@@H](O)[C@@H](C)[C@H](OC(=O)CN2CCC(Oc3ccccc3)CC2)[C@@H]1C)C4=O` [Compound 25], the MIC in experiment [1] came to 0.06 µg/mL (≈ 58.7 nM); with M. xenopi (ATCC 19250) it was 0.02 µg/mL; in experiment [2], 1 µg/mL (≈ 978 nM); in experiment [3], 0.1 µg/mL; in experiment [4] (setting [6]), 1 µg/mL (≈ 978 nM); in the experiment on M. kansasii (ATCC 12478), 0.02 µg/mL. Also, the MIC is 0.008 µg/mL (≈ 7.83 nM) in experiment [5] and 0.8 µg/mL in the experiment with M. avium (ATCC 25291).
As for `CO[C@H]1/C=C/O[C@@]2(C)Oc3c(C)c(O)c4c(c3C2=O)C2=NC3(CCN(CC(C)C)CC3)NC2=C(NC(=O)/C(C)=C\C=C\[C@H](C)[C@H](O)[C@@H](C)[C@@H](O)[C@@H](C)[C@H](OC(=O)CN2CCC(N3CCCCC3)CC2)[C@@H]1C)C4=O` [Compound 26], the MIC in experiment [1] is ≤ 0.002 µg/mL; with M. xenopi (ATCC 19250), 0.06 µg/mL; in experiment [2], 0.06 µg/mL (≈ 59.2 nM); in experiment [3], 0.04 µg/mL; in experiment [4] (setting [6]) it was 0.5 µg/mL (≈ 493 nM); in the experiment on M. kansasii (ATCC 12478), 0.02 µg/mL. For the same compound, the MIC in experiment [5] is 0.007 µg/mL (≈ 6.91 nM); in the experiment on M. avium (ATCC 25291) it was 1.15 µg/mL.
As for `CO[C@H]1/C=C/O[C@@]2(C)Oc3c(C)c(O)c4c(c3C2=O)C2=NC3(CCN(CC(C)C)CC3)NC2=C(NC(=O)/C(C)=C\C=C\[C@H](C)[C@H](O)[C@@H](C)[C@@H](O)[C@@H](C)[C@H](OC(=O)CN2CCC3C(CCCN3Cc3ccccc3)C2)[C@@H]1C)C4=O` (some centres unmarked) [Compound 28], the MIC in experiment [1] stood at 0.016 µg/mL (≈ 14.9 nM); in the experiment with M. xenopi (ATCC 19250) it was 0.03 µg/mL; in experiment [2], 0.125 µg/mL (≈ 116 nM); in experiment [3], 0.1 µg/mL; in experiment [4] (setting [7]), 0.125 µg/mL (≈ 116 nM); in the experiment on M. kansasii (ATCC 12478), 0.01 µg/mL. The MIC in experiment [5] was 0.003 µg/mL (≈ 2.79 nM); with M. avium (ATCC 25291), 3.9 µg/mL.
With `CO[C@H]1/C=C/O[C@@]2(C)Oc3c(C)c(O)c4c(c3C2=O)C2=NC3(CCN(CC(C)C)CC3)NC2=C(NC(=O)/C(C)=C\C=C\[C@H](C)[C@H](O)[C@@H](C)[C@@H](O)[C@@H](C)[C@H](OC(=O)CN2CCC(NS(=O)(=O)c3ccccc3)CC2)[C@@H]1C)C4=O` [Compound 29], the MIC in experiment [1] was found to be 0.03 µg/mL (≈ 27.6 nM); in the experiment with M. xenopi (ATCC 19250) it was 0.01 µg/mL; in experiment [2], 0.5 µg/mL (≈ 461 nM); in experiment [3], 0.09 µg/mL; in experiment [4] (setting [6]), 0.25 µg/mL (≈ 230 nM); in the experiment with M. kansasii (ATCC 12478), 0.01 µg/mL. Moreover, the MIC in experiment [5] was found to be 0.003 µg/mL (≈ 2.76 nM); in the experiment with M. avium (ATCC 25291), 0.6 µg/mL.
Take `CO[C@H]1/C=C/O[C@@]2(C)Oc3c(C)c(O)c4c(c3C2=O)C2=NC3(CCN(CC(C)C)CC3)NC2=C(NC(=O)/C(C)=C\C=C\[C@H](C)[C@H](O)[C@@H](C)[C@@H](O)[C@@H](C)[C@H](OC(=O)CN2CCc3[nH]c5ccccc5c3C2)[C@@H]1C)C4=O` [Compound 33]: the MIC was determined as 0.125 µg/mL (≈ 123 nM) in experiment [1]; 0.7 µg/mL with M. xenopi (ATCC 19250); 1 µg/mL (≈ 983 nM) in experiment [2]; 0.1 µg/mL in experiment [3]; 0.5 µg/mL (≈ 492 nM) in experiment [4] (setting [6]); 0.01 µg/mL in the experiment on M. kansasii (ATCC 12478). The MIC was 0.008 µg/mL (≈ 7.86 nM) in experiment [5] and 0.3 µg/mL with M. avium (ATCC 25291).
Turning to `CO[C@H]1/C=C/O[C@@]2(C)Oc3c(C)c(O)c4c(c3C2=O)C2=NC3(CCN(CC(C)C)CC3)NC2=C(NC(=O)/C(C)=C\C=C\[C@H](C)[C@H](O)[C@@H](C)[C@@H](O)[C@@H](C)[C@H](OC(=O)CN2CCCN(c3ccc(F)cc3)CC2)[C@@H]1C)C4=O` [Compound 34], the MIC in experiment [1] is 0.125 µg/mL (≈ 120 nM); with M. xenopi (ATCC 19250) it was 0.01 µg/mL; in experiment [2], 2 µg/mL (≈ 1920 nM); in experiment [3], 0.11 µg/mL; in experiment [4] (setting [6]), 0.5 µg/mL (≈ 481 nM); in the experiment with M. kansasii (ATCC 12478), 0.009 µg/mL. The MIC in experiment [5] was 0.008 µg/mL (≈ 7.7 nM); in the experiment with M. avium (ATCC 25291) it was 0.5 µg/mL.
Take `CO[C@H]1/C=C/O[C@@]2(C)Oc3c(C)c(O)c4c(c3C2=O)C2=NC3(CCN(CC(C)C)CC3)NC2=C(NC(=O)/C(C)=C\C=C\[C@H](C)[C@H](O)[C@@H](C)[C@@H](O)[C@@H](C)[C@H](OC(=O)C[n+]2ccc(N(C)C)cc2)[C@@H]1C)C4=O` [Compound 35]: the MIC in experiment [1] was ≤ 0.002 µg/mL; in the experiment on M. xenopi (ATCC 19250), 0.04 µg/mL; in experiment [2] it was 0.06 µg/mL; in experiment [3], 0.03 µg/mL; in experiment [4] (setting [6]), 0.5 µg/mL; in the experiment on M. kansasii (ATCC 12478), 0.003 µg/mL. Moreover, the MIC in experiment [5] was found to be 0.0025 µg/mL; with M. avium (ATCC 25291), 0.8 µg/mL.
As to `CO[C@H]1/C=C/O[C@@]2(C)Oc3c(C)c(O)c4c(c3C2=O)C2=NC3(CCN(CC(C)C)CC3)NC2=C(NC(=O)/C(C)=C\C=C\[C@H](C)[C@H](O)[C@@H](C)[C@@H](O)[C@@H](C)[C@H](OC(=O)CN2CCC(N(C)c3ccccc3)CC2)[C@@H]1C)C4=O` [Compound 39], the MIC is ≤ 0.03 µg/mL in experiment [1]; 0.003 µg/mL in the experiment with M. xenopi (ATCC 19250); 0.125 µg/mL (≈ 121 nM) in experiment [2]; 0.06 µg/mL in experiment [3]; 0.125 µg/mL (≈ 121 nM) in experiment [4] (setting [7]); 0.003 µg/mL in the experiment on M. kansasii (ATCC 12478). The MIC came out at 0.0001 µg/mL (≈ 0.0966 nM) in experiment [5] and 0.4 µg/mL in the experiment on M. avium (ATCC 25291).
In the case of `CO[C@H]1/C=C/O[C@@]2(C)Oc3c(C)c(O)c4c(c3C2=O)C2=NC3(CCN(CC(C)C)CC3)NC2=C(NC(=O)/C(C)=C\C=C\[C@H](C)[C@H](O)[C@@H](C)[C@@H](O)[C@@H](C)[C@H](OC(=O)CN2CCN(CC3CCCCC3)CC2)[C@@H]1C)C4=O` [Compound 40], the MIC worked out at 0.125 µg/mL (≈ 122 nM) in experiment [1]; 0.05 µg/mL in the experiment with M. xenopi (ATCC 19250); 0.25 µg/mL (≈ 243 nM) in experiment [2]; 0.02 µg/mL in experiment [3]; 0.125 µg/mL (≈ 122 nM) in experiment [4] (setting [6]); 0.008 µg/mL in the experiment on M. kansasii (ATCC 12478). Further, the MIC in experiment [5] came to 0.004 µg/mL (≈ 3.89 nM); with M. avium (ATCC 25291), 0.19 µg/mL.
As for `CO[C@H]1/C=C/O[C@@]2(C)Oc3c(C)c(O)c4c(c3C2=O)C2=NC3(CCN(CC(C)C)CC3)NC2=C(NC(=O)/C(C)=C\C=C\[C@H](C)[C@H](O)[C@@H](C)[C@@H](O)[C@@H](C)[C@H](OC(C)=O)[C@@H]1C)C4=O` [Rifabutin], the MIC was ≤ 0.002 µg/mL in experiment [1]; 0.01 µg/mL in the experiment on M. xenopi (ATCC 19250); 0.016 µg/mL (≈ 18.9 nM) in experiment [2]; 0.14 µg/mL in experiment [3]; 8 µg/mL (≈ 9440 nM) in experiment [4] (setting [6]); 8 µg/mL (≈ 9440 nM) in experiment [4] (ATCC19977, tested M. abscessus strains, read-out: MIC value on M. abscessus). For the same compound, the figures for the MIC (in the experiment with M. kansasii (ATCC 12478); in experiment [5]; in the experiment with M. avium (ATCC 25291)) were 0.001 µg/mL, 0.0003 µg/mL (≈ 0.354 nM) and 0.15 µg/mL, respectively.
